# Assays:
# [1] = test system: split IL-2 CISC (FRB-IL2RB and FKBP-IL2RG) dual-edited human CD4+ T cells; assay: Enrichment of split IL-2 CISC dual-edited CD4+ T cells; assay type: cell-based
# Protocol: FIG. 27 depicts an exemplary timeline of steps for dual AAV editing of CD4+ T cells, expansion with rapalog, and analysis of enriched cells. […] Flow cytometry to assess enrichment of GFP, mCherry double-positive cells was carried out on days 6, 8, and 10 post-editing.
# CISC components (IL2RG vs. IL2RB) are split between 2 constructs and co-expressed with either HA-FoxP3 cDNA or the islet-specific TCR, T1D4 (AAVs #3240 and #3243 respectively). Each repair template is flanked by identical homology arms that […] the gRNA targeting the TRAC locus. […] Panel B depicts a timeline of key steps for dual AAV/RNP-based editing of CD4+ T cells, expansion with Rapalog and analysis of enriched cells. […] Flow cytometry to assess enrichment of HA-FoxP3, TCR double-positive cells was carried out on days 5 and 8 post-editing.
# FIG. 60 relates to a strategy for testing two-loci dual-editing of human CD4+ T cells. […] CISC components are split between 2 constructs and co-expressed with either mCherry or GFP ([…]). Repair templates are flanked by homology arms matched to gRNAs targeting either the TRAC or FOXP3 locus, respectively. […] Panel B depicts a timeline showing steps for dual AAV editing of CD4+ T cells and expansion with Rapalog. Human CD4+ T cells were edited using human TRAC gRNA_4, human FOXP3 gRNA_T9 and #3251 (MND.mCherry.FKBP.IL2RG) and #3207 (MND.GFP.FRB.IL2RB) AAV constructs (two-loci dual editing). Immediately following electroporation, the cells were placed in either 20% or 2.5% FBS containing media (recovery media). After ~16 h, the media was replaced with 20% FBS containing media and FACS analysis done on day 3 to determine editing rate.
# In order to obtain sufficient numbers of cells for therapeutic use, it may be useful, in some contexts, to selectively expand engineered cells in vitro. […] See e.g., FIG. 108. In such methods, FRB-IL2RB and FKBP-IL2RG components were contained in the same cassette to select for single integration events.
# For these studies, FRB-IL2RB and FKBP-IL2RG components were split into two separate cassettes, one containing GFP and the other containing mCherry, to allow for selection of two independent integrations.
# A timeline for key steps for dual AAV editing of CD4+ T cells and expansion with Rapalog is depicted in FIG. 124B. […] Briefly, human CD4+ T cells were edited using human TRAC gRNA_4, and #3240 (MND.HA.FOXP3.FKBP.IL2RG) and #3243 (MND.T1D4.FRB.IL2RB) AAV constructs (single-locus dual editing). Immediately following electroporation, the cells were placed in 2.5% FBS containing media (recovery media) for ~24 hours and then maintained in 20% FBS containing media throughout the rest of the experiment.
# [2] = test system: split-DISC (#3280 and #3207) dual-edited human CD4+ T cells; assay: Enrichment/expansion of split-DISC dual-edited CD4+ T cells; assay type: cell-based; conditions: 7-day treatment in AP21967 in gREX, from 340,000 cells seeded
# Protocol: Cells were bead-stimulated (CD3/CD28) for 3 days prior to editing. […] Panel C depicts flow plots show the percentage of GFP/mCherry double-positive cells on day 3 post-editing.
# Dual-editing was performed as described in FIG. 70.
# Split-DISC constructs were used to determine the enrichment and expansion of dual-edited T cells. The ability to scale up manufacturing to obtain cell numbers sufficient for animal studies by expanding edited CD4+ T cells in gREX flasks was assessed. In particular, dual-editing and enrichment of human CD4+ T Cells using split-DISC constructs was studied. […] Each repair template (#3280 and #3207) was flanked by identical homology arms matched to a gRNA targeting the TRAC locus. […] Cells were bead stimulated (CD3/CD28) for 3 days prior to editing. Immediately following electroporation, the cells were placed in 2.5% FBS containing media (recovery media) for ~24 hours and then maintained in 20% FBS containing media throughout the rest of the experiment. Three days post editing, cells were analyzed by flow for GFP and mCherry expression, and then expanded in media containing 50 ng/ml human IL-2 or 100 nM Rapalog.
# Cells were bead stimulated (CD3/CD28) for 3 days prior to editing. Three days post editing, cells were analyzed by flow for GFP and mCherry expression, and then expanded in media containing 100 nM Rapalog for an additional 7 days.
smiles,measurement,setting,value
CO[C@H]1[C@@H](O)[C@H](C)C[C@H](C)/C=C/C=C/C=C(\C)[C@@H](c2c[nH]c3c(C)cccc23)C[C@@H]2CC[C@@H](C)[C@@](O)(O2)C(=O)C(=O)N2CCCC[C@H]2C(=O)O[C@H]([C@H](C)C[C@@H]2CC[C@@H](O)[C@H](OC)C2)C[C@H](O)[C@H](C)/C=C(\C)[C@H]1O [Rapalog],enrichment of double-positive cells,"[1]; #3240 and #3243, cells recovered in 2.5% FBS, 7 days of Rapalog treatment",~10 fold
same,FOXP3/T1D4 double positive cells,"[1]; #3240 and #3243, day 7, 100 nM AP21967 or 50 ng/mL IL-2, initial 1.6%",19.1%
same,GFP/mCherry double-positive cells,"[1]; donor R003471, enriched in presence of Rapalog (FIG. 32)",28.5%
same,GFP/mCherry double-positive cells,"[1]; donor R003657, enriched in presence of Rapalog (FIG. 32)",13.8%
same,enrichment of double-positive antigen-specific Treg population,[1]; over the course of the 10 day study,approximately 15 fold
same,GFP/mCherry double-positive cells,"[1]; two-loci #3207 and #3251, repeat experiment (FIG. 65), 10 days, initial 15.4%",54%
same,expansion of double positive cells,[2],32 fold
